Measured values published in patent US12129244B2, “Modulators of Mas-related G-protein receptor X2 and related products and methods” (Escient Pharmaceuticals, Inc., priority 2022, dated 2024).

The molecules below were run against T1, human MRGPRX2 (Homo sapiens, UniProt Q96LB1) (assay: MRGPRX2 activity: IP-One HTRF antagonist assay in CHO cells versus Cortistatin-14). Conditions: CHO cells stably expressing human MRGPRX2; versus 0.3 uM Cortistatin-14 agonist; IP-1 HTRF.
T1 construct: expressed in transfected cells
T1 sequence (Q96LB1 1-330): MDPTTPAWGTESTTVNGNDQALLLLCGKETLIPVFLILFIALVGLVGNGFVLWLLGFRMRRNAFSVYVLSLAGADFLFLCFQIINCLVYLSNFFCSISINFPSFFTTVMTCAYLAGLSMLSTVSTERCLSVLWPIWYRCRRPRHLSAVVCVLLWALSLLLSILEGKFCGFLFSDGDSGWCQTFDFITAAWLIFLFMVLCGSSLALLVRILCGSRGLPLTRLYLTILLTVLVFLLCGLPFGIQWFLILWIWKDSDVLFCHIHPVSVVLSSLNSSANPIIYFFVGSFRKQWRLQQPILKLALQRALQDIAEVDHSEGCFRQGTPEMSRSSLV
Format: cell-based
Method: CHO cells stably transfected to express human MRGPRX2 were maintained in an incubator at 37° C. with 5% CO2 and grown in F12 (HAM) media with 10% fetal bovine serum (FBS), 1% Glutamax, 1% penicillin/streptomycin, 800 μg/mL Geneticin (G418), and 300 μg/mL Hygromycin B.
Cells were plated in a 384-well assay plate at 20,000 cells per well in 12 μL of Opti-MEM and kept in an incubator overnight. On the day of the assay, compounds solubilized at 10 mM in DMSO were added as a 10-point curve (30 uM final top concentration with 1:3 serial dilutions) using a Tecan D300E digital dispenser. Agonists were diluted in assay buffer (final concentrations of 5.7 mM Tris-HCl, 43 mM NaCl, 50 mM LiCl, pH=8) and 2 μL of the agonist Cortistatin-14 (CPC Scientific, catalog CORT-002) are added to each well. Final concentrations of agonists were 0.3 μM Cortistatin. Final concentrations of DMSO were kept consistent across the plate. Plates were incubated in the dark for 1 h at 37° C. and then for 1 h at room temperature. IP-1 standards and HTRF detection reagents were added according to the IP-One-Gq Kit purchased from Cisbio (part number 62IPAPEJ) and incubated in the dark for 1 h at room temperature. The plate was read on a Molecular Devices SpectraMax iD5 plate reader. The HTRF ratio was calculated from the raw data and graphed using GraphPad Prism to calculate an IC50 value for each compound.
The activity ranges are denoted as follows: “+++++” denotes antagonist activity <100 nM; “++++” denotes antagonist activity between 100 and 500 nM; “+++” denotes activity between 501 and 1000 nM; “[…]” denotes activity between 1001 and 2500 nM; and “+” denotes activity >2500 nM

SMILES | IC50 [nM]
O=C(N[C@@H]1CCC[C@H](Nc2cc(C(F)(F)F)nc3ccccc23)C1)C1COCCN1Cc1ccccc1 (mixture of isomers) [Example 4-31] | > 2500
CC1C(C(=O)N[C@@H]2CCC[C@H](Nc3cc(C(F)(F)F)nc4ccccc34)C2)CC2CC1C2(C)C (mixture of isomers) [Example 4-64] | > 2500
O=C(CCc1ccc(Cl)c(F)c1)N[C@@H]1CCC[C@H](Nc2cc(C(F)(F)F)nc3ccccc23)C1 (racemic) [Example 4-82] | > 2500
O=C(N[C@@H]1CCC[C@H](Nc2cc(C(F)(F)F)nc3ccccc23)C1)c1coc2ccccc2c1=O (racemic) [Example 4-111] | > 2500
O=C(N[C@@H]1CCC[C@H](Nc2cc(C(F)(F)F)nc3ccccc23)C1)c1ccccc1Oc1ccccc1 (racemic) [Example 4-113] | > 2500
O=C(N[C@@H]1CCC[C@H](Nc2cc(C(F)(F)F)nc3ccc(Cl)cc23)C1)c1ccc(C(=O)N2CCOCC2)cc1 [Example 3-20] | < 100
CCc1ccc(C(=O)N[C@@H]2CCC[C@H](Nc3cc(C(F)(F)F)nc4ccccc34)C2)cc1 [Example 4-18] | 100 to 500
Cc1ccc2nc(C(F)(F)F)cc(N[C@H]3CCC[C@@H](NC(=O)c4cccc(N(C)C)c4)C3)c2c1 [Example 4-159] | 100 to 500
CNc1ccccc1C(=O)N[C@@H]1CCC[C@H](Nc2cc(C(F)(F)F)nc3ccc(C)cc23)C1 [Example 4-165] | 501 to 1000
O=C(N[C@@H]1CCC[C@H](Nc2cc(C(F)(F)F)nc3ccccc23)C1)c1ccc2[nH]c(-c3ccncc3)nc2c1 [Example 4-181] | 100 to 500
CN(C)c1cccc(C(=O)N[C@@H]2CCC[C@H](Nc3cc(C(F)(F)F)nc4ccc(Cl)cc34)C2)c1 [Example 4-216] | 100 to 500
O=C(N[C@@H]1CCC[C@H](Nc2cc(C(F)(F)F)nc3ccc(Cl)cc23)C1)c1ccc2nncn2c1 [Example 4-245] | < 100
O=C(N[C@@H]1CCC[C@H](Nc2cc(C(F)(F)F)nc3ccc(Cl)cc23)C1)c1cccc(Cl)c1 [Example 4-249] | 100 to 500
CS(=O)(=O)Nc1cc(C(=O)N[C@@H]2CCC[C@H](Nc3cc(C(F)(F)F)nc4ccc(Cl)cc34)C2)ccc1F [Example 4-258] | < 100
O=C(N[C@@H]1CCC[C@H](Nc2cc(C(F)(F)F)nc3ccc(Cl)cc23)C1)c1cc(O)cc(O)c1 [Example 4-271] | < 100
CC(C)S(=O)(=O)Nc1cccc(C(=O)N[C@@H]2CCC[C@H](Nc3cc(C(F)(F)F)nc4ccc(F)cc34)C2)c1 [Example 4-297] | < 100
CS(=O)(=O)Nc1cccc(C(=O)N[C@@H]2CCC[C@H](Nc3cc(C(F)(F)F)nc4ccc(F)cc34)C2)c1 [Example 4-302] | < 100
O=C(N[C@@H]1CCC[C@H](Nc2cc(C(F)(F)F)nc3ccc(Cl)cc23)C1)c1c[nH]cc1C(F)(F)F [Example 4-394] | < 100

SMILES | IC50 [nM]
O=C(N[C@@H]1CCC[C@H](Nc2cc(C(F)(F)F)nc3ccc(Cl)cc23)C1)c1cnn(CCCl)c1 [Example 4-396] | < 100
O=C(N[C@@H]1CCC[C@H](Nc2cc(C(F)(F)F)nc3ccc(Cl)cc23)C1)c1ccn2cnnc2c1 [Example 4-397] | < 100
Cc1nn(C)cc1C(=O)N[C@@H]1CCC[C@H](Nc2cc(C(F)(F)F)nc3ccc(Cl)cc23)C1 [Example 4-401] | < 100
Cn1cc(C(=O)N[C@@H]2CCC[C@H](Nc3cc(C(F)(F)F)nc4ccc(Cl)cc34)C2)c(C(F)F)n1 [Example 4-404] | < 100
O=C(N[C@@H]1CCC[C@H](Nc2cc(C(F)(F)F)nc3ccc(Cl)cc23)C1)c1cn[nH]c1C1CC1 [Example 4-405] | < 100
O=C(N[C@@H]1CCC[C@H](Nc2cc(C(F)(F)F)nc3ccc(Cl)cc23)C1)c1cn(C(F)F)nc1Cl [Example 4-406] | < 100
O=C(N[C@@H]1CCC[C@H](Nc2cc(C(F)(F)F)nc3ccc(Cl)cc23)C1)c1cnn(C2COC2)c1 [Example 4-407] | < 100
N#Cc1cc(C(=O)N[C@@H]2CCC[C@H](Nc3cc(C(F)(F)F)nc4ccc(Cl)cc34)C2)c[nH]1 [Example 4-408] | < 100
CN(C)Cc1ccc(C(=O)N[C@@H]2CCC[C@H](Nc3cc(C(F)(F)F)nc4ccc(Cl)cc34)C2)cc1 [Example 4-410] | < 100
Cn1c(C(=O)N[C@@H]2CCC[C@H](Nc3cc(C(F)(F)F)nc4ccc(Cl)cc34)C2)cnc1Cl [Example 4-412] | < 100
CNc1cc(C(=O)N[C@@H]2CCC[C@H](Nc3cc(C(F)(F)F)nc4ccc(Cl)cc34)C2)ccc1OC [Example 4-413] | < 100
O=C(N[C@@H]1CCC[C@H](Nc2cc(C(F)(F)F)nc3ccc(Cl)cc23)C1)c1ccc(N2CC2)cc1 [Example 4-415] | < 100
Cn1ccc(C(=O)N[C@@H]2CCC[C@H](Nc3cc(C(F)(F)F)nc4ccc(Cl)cc34)C2)c1 [Example 4-416] | < 100
Cc1cn(C)cc1C(=O)N[C@@H]1CCC[C@H](Nc2cc(C(F)(F)F)nc3ccc(Cl)cc23)C1 [Example 4-417] | < 100
Nc1cnc(Cl)c(C(=O)N[C@@H]2CCC[C@H](Nc3cc(C(F)(F)F)nc4ccc(Cl)cc34)C2)c1 [Example 4-418] | < 100
Cc1cc(C(=O)N[C@@H]2CCC[C@H](Nc3cc(C(F)(F)F)nc4ccc(Cl)cc34)C2)co1 [Example 4-419] | < 100
O=C(N[C@@H]1CCC[C@H](Nc2cc(C(F)(F)F)nc3ccc(Cl)cc23)C1)c1ccon1 [Example 4-425] | < 100
Cc1nn(CC(F)(F)F)cc1C(=O)N[C@@H]1CCC[C@H](Nc2cc(C(F)(F)F)nc3ccc(Cl)cc23)C1 [Example 4-464] | < 100

Results, then the molecule that gave them:

IC50 [nM] | SMILES
> 2500 | O=C(CCc1cc(Br)ccc1F)N[C@@H]1CCC[C@H](Nc2cc(C(F)(F)F)nc3ccccc23)C1 (racemic) [Example 4-74]
100 to 500 | COC(=O)c1cccc(C(=O)N[C@@H]2CCC[C@H](Nc3cc(C(F)(F)F)nc4ccccc34)C2)c1 [Example 3-5]
< 100 | CNc1ccc(C(=O)N[C@@H]2CCC[C@H](Nc3cc(C(F)(F)F)nc4ccc(C)cc34)C2)cc1 [Example 4-130]
501 to 1000 | C=CC12CCC(C(=O)N[C@@H]3CCC[C@H](Nc4cc(C(F)(F)F)nc5ccccc45)C3)(CC1)CO2 [Example 4-171]
< 100 | O=C(N[C@@H]1CCC[C@H](Nc2cc(C(F)(F)F)nc3ccc(Cl)cc23)C1)c1cccc2[nH]ccc12 [Example 4-223]
< 100 | CC(C)S(=O)(=O)Nc1cccc(C(=O)N[C@@H]2CCC[C@H](Nc3cc(C(F)(F)F)nc4ccc(Cl)cc34)C2)c1 [Example 4-228]
< 100 | CS(=O)(=O)Nc1ccc(C(=O)N[C@@H]2CCC[C@H](Nc3cc(C(F)(F)F)nc4ccc(Cl)cc34)C2)cc1 [Example 4-240]
< 100 | O=C(N[C@@H]1CCC[C@H](Nc2cc(C(F)(F)F)nc3ccc(Cl)cc23)C1)c1ccnc2cn[nH]c12 [Example 4-263]
< 100 | Cc1cn2cc(C(=O)N[C@@H]3CCC[C@H](Nc4cc(C(F)(F)F)nc5ccc(Cl)cc45)C3)ccc2n1 [Example 4-265]
< 100 | CC(C#N)c1cccc(C(=O)N[C@@H]2CCC[C@H](Nc3cc(C(F)(F)F)nc4ccc(F)cc34)C2)c1 (stereo partly shown) [Example 4-282]
< 100 | O=C(N[C@@H]1CCC[C@H](Nc2cc(C(F)(F)F)nc3ccc(F)cc23)C1)c1cccc(O)c1 [Example 4-284]
< 100 | CS(=O)(=O)Nc1ccc(C(=O)N[C@@H]2CCC[C@H](Nc3cc(C(F)(F)F)nc4ccc(F)cc34)C2)cc1 [Example 4-317]
100 to 500 | CCCn1nccc1C(=O)N[C@@H]1CCC[C@H](Nc2cc(C(F)(F)F)nc3ccc(F)cc23)C1 [Example 4-325]
< 100 | O=C(N[C@@H]1CCC[C@H](Nc2cc(C(F)(F)F)nc3ccc(Cl)cc23)C1)c1cncc2cn[nH]c12 [Example 4-398]
< 100 | O=C(N[C@@H]1CCC[C@H](Nc2cc(C(F)(F)F)nc3ccc(Cl)cc23)C1)c1ncco1 [Example 4-424]
< 100 | Cc1cc(C(=O)N[C@@H]2CCC[C@H](Nc3cc(C(F)(F)F)nc4ccc(Cl)cc34)C2)c(C)[nH]1 [Example 4-426]
< 100 | CCc1[nH]ccc1C(=O)N[C@@H]1CCC[C@H](Nc2cc(C(F)(F)F)nc3ccc(Cl)cc23)C1 [Example 4-427]
< 100 | CCn1ncc(C(=O)N[C@@H]2CCC[C@H](Nc3cc(C(F)(F)F)nc4ccc(Cl)cc34)C2)c1C [Example 4-452]
< 100 | O=C(N[C@@H]1CCC[C@H](Nc2cc(C(F)(F)F)nc3ccc(Cl)cc23)C1)c1cnn(C2CCCCC2)c1 [Example 4-487]
